Source: patent US11903397B2, “Hay preservative and methods for preservation of hay” (DANSTAR FERMENT AG, priority 2014, dated 2024)
Marks after values point to notes of the source that are not given here.

How the values were obtained:
moulds = assay: Microbial counts on alfalfa hay: mold (Example 2)
Excerpt: (§1) The application rate of the combination of P. anomala in combination with the enzyme having a chitinase activity was respectively 10^11 CFU and 1.5 g in 1 L of water per ton of hay. Accordingly, the application rate of the combination of P. pentosaceus in combination with the enzyme having a chitinase activity 10^11 CFU and 1.5 g in 1 L of water per ton of hay. […] The negative control was water, and was applied at a rate of 1 L per ton of hay. Five large round bales of about 800 kg were made in accordance with Example 1 for each treatment on the same day. Core samples from bales across all treatments were collected at day 0, 90 and 180 after baling to analyze their nutritional value, fermentation product and microbial changes.
(§2) Core samples collected on day 0 and 90, 180 after baling were subjected to microbiological and chemical analysis. Microbiological analysis was conducted to enumerate, isolate and characterize the microorganisms (total bacteria, yeasts and moulds) on appropriate plates through serial dilution.

[1] = tested on: total bacteria (non-fastidious bacteria growing on nutrient agar); assay: Enumeration of total bacteria on hay (Example 1)
Protocol: (§3) Two trial bales were made to determine time to complete application of the additive on one bale, weight of the bale as well as a more accurate measure of moisture content of the baled material. Bale moisture was determined using a hay probe. […] The application rate of P. anomala was 10^11 CFU in 1 L per ton of hay. The enzyme having a chitinase activity was applied at a rate of 1.5 g (suspended in 1 L of water) per ton of hay, corresponding to about 6 U per ton of hay. […] The negative control was water, and was applied at a rate of 1 L per ton of hay. […] Five replicate bales were made for each treatment. Samples of the P. anomala were taken after each application to verify the viability and numbers of the organism. […]
(§4) Chemical and microbiological analyses were conducted on hay samples collected from six different sections of the field and on composite core samples obtained from four different locations on each bale on day 1, 90, and 180 of storage. […] Dry matter (DM), organic matter (OM) and crude protein (CP) were determined according to AOAC (1990) procedures, and neutral detergent fibre (NDF), acid detergent fibre (ADF), and acid detergent insoluble nitrogen (ADIN) as described by Van Soest et al., (1991. Methods for dietary fiber, neutral detergent and non-starch polysaccharides in relation to animal nutrition. J. Dairy Sci. 74: 3583-3597.).

total bacteria = assay: Microbial counts on alfalfa hay: total bacteria (Example 2)
Excerpt: as §1, §2

[2] = Quality evaluation of hay (color, odor, grade) after 180 days (Example 1); design: key to GRADE (overall evaluation by examiner): VP: very poor; P: poor; A: average; G: good; VG: very good
Excerpt: All bales were opened on day 180 and their quality assessed based on the Maryland Cooperative Extension Fact Sheet #644.
Temperature stability of the bales was monitored by continuously measuring the interior temperature of each bale with three Dallas Thermochron iButtons (Embedded Data Systems, Lawrenceburg, KY) that were inserted in the core holes the following morning after baling. The iButtons were configured to record temperatures every hour during the first 60 days of the storage period. […] Bales were opened and visually scored for extent of spoilage and mold at the end of the storage period (180 d) based on the Maryland Cooperative Extension Fact Sheet #644 ‘Evaluating Hay Quality’ (http://www.extension.umd.edu/publications/pdfs/fs644. pdf).

[3] = tested on: lactic acid producing bacteria (LAB); assay: Enumeration of lactic acid producing bacteria on hay (Example 1)
Protocol: as §3, §4

[4] = In situ DM disappearance of hay in the rumen (Example 1); type: in vivo, Jersey cows; conditions: fitted equation, day 180 hay
Protocol: (§5) In situ rate and extent of DM and NDF disappearance of the day 180 hay samples were determined in three cows fitted with ruminal cannulas and fed a standard feedlot backgrounding diet consisting of 50% timothy hay plus 50% barley silage (DM basis). Subsamples of the day 180 core samples obtained from bales treated with the same preservative were composited and ground to pass through a 4 mm screen. Approximately 4 g of each composite sample was weighed into Dacron bags and incubated in triplicate in each cow for 0, 2, 6, 12, 24, 48, 72, 96, and 120 h. Bags were made of monofilament polyester mesh (53 μm pore size, 5 cm×20 cm, Ankom, Fairport, New York). Cows were given two weeks to adapt to their diets before starting incubations. Immediately after incubation, bags were rinsed under cold tap water until all the rumen contents on the outside of the bags had been removed. Bags were washed in a domestic washing machine in cold water for three minutes using the delicate washing cycle without detergent and spin cycle. The washing procedure was repeated once. […] The residues from triplicate bags of the same treatment incubated in the same cow were pooled and ground to pass through a 1 mm screen before being analyzed for NDF as per the method stated above. Percentage disappearance of DM and NDF were calculated from the proportion remaining in the bags after each incubation time. […]

[5] = Temperature stability of alfalfa hay bales (Example 2, FIG. 2, FIG. 3)
Excerpt: as §1
Temperature of individual bales was monitored by continuously measuring the interior temperature throughout the storage period with three (3) Dallas Thermochron iButtons (Embedded Data Systems, Lawrenceburg, KY) inserted in the interior of each bale immediately after harvest (illustrated in pictures). The temperature was recorded at 4 hours intervals for 10 weeks.

[6] = In situ ruminal digestion parameters of alfalfa hay (Example 2); type: in vivo, cows; conditions: hay 180 days after baling
Protocol: Core samples were collected on day 180 and evaluated for nutritional quality using in situ and in vitro methods.
In situ experiments were conducted to assess the effect of hay preservatives on the rate and extent of digestion of hay samples collected 180 days after baling. Three cows fitted with ruminal cannulas and fed a standard feedlot backgrounding diet were used. Approximately 4 g of each composite sample from each bale (replicate) per treatment was weighed into Dacron bags and incubated in triplicate in each cow for 0, 2, 6, 12, 24, 48, 72, 96, and 120 h. Bags were retrieved after incubation and processed according to LRC SOP to determine in situ ruminal DM and NDF disappearance.

yeasts [7] = assay: Microbial counts on alfalfa hay: yeast (Example 2)
Excerpt: as §1, §2

[8] = In situ NDF disappearance of hay in the rumen (Example 1); type: in vivo, Jersey cows; conditions: fitted equation; day 180 hay
Protocol: as §5

molds = assay: Enumeration of molds on hay (Example 1)
Protocol: as §3, §4

yeasts [9] = assay: Enumeration of yeasts on hay (Example 1)
Protocol: as §3, §4

[10] = In vitro digestibility and gas production of alfalfa hay in mixed rumen fluid (Example 2); design: species or system cows; conditions: 180 day hay
Protocol: In vitro experiment was also conducted to assess the effect of microbial inoculants on gas production and kinetics from 180 day hay samples. Two runs by mixed rumen fluid from three cows fitted with ruminal cannulas and fed a standard feedlot backgrounding diet were conducted. Approximately 0.5 g of each composite sample of 180d hay per treatment was weighed into vial and incubated in triplicate in each run and gas were measured for 3, 6, 9, 12, 24 and 48 h. Vials were retrieved after incubation and processed according to LRC SOP to determine in vitro ruminal DM disappearance, gas production, ammonia and VFA.

[11] = day 0, unit printed only at total bacteria (log cfu/g DM)
[12] = hay 90 days after treatment at baling
[13] = hay 180 day post treatment at baling
[14] = mean of bales, stored for 180 days

Structure (SMILES): CCC(=O)O [BPA, Propionic Acid]
- MOLD count (moulds; [11]): 4.66
- MOLD count (moulds; day 90): 5.91
- TB (non-fastidious bacteria growing on nutrient agar) [1, 12]: 6.10 cfu log10
- NA [1, 13]: 7.23 cfu log10
- Total bacteria (total bacteria; day 0): 6.34 log cfu/g DM
- Total bacteria (total bacteria; day 90): 8.49^a log cfu/g DM
- Total bacteria (total bacteria; day 180): 8.25^a log cfu/g DM
- hay quality by visual and sensory assessment (in words) ([2]; bales opened on day 180): poorest quality
- COLOR score, Mean [2, 14]: 8.8 points
- ODOR score, Mean [2, 14]: 6.8 points
- OVERALL score, Mean [2, 14]: 15.6
- GRADE (overall evaluation by examiner) ([2]; single bales (Bale # 1-5), stored for 180 days): P and VP
- LAB (bacteria growing on MRS presumed to be Lactobacilli) [3, 12]: 4.88^c cfu log10
- MRS [3, 13]: 6.28 cfu log10
- DM disappearance kinetics: c (fractional rate of disappearance of fraction b) [4]: 0.083^c h^−1
- DM disappearance kinetics: c (fractional rate of disappearance of fraction b) ([4]; listed as propionic acid): 0.083 h⁻¹
- average interior bale temperature (in words) ([5]; 60 day period post baling, FIG. 2): highest mean temperature over time
- time spent above 40° C. (in words) ([5]; storage 2012, FIG. 3): longest time above 40 °C
- a = the rapidly degradable fraction [6]: 23.64^c
- b = the slowly degradable fraction [6]: 51.69^a
- c = the rate at which b is degraded [6]: 0.04^c /h
- lag = lag time [6]: 1.70^c h
- YEAST count (yeasts [7]; [11]): 5.49
- YEAST count (yeasts [7]; day 90): 6.22
- YEAST count (yeasts [7]; day 180): 4.89
- NDF disappearance kinetics: Lag [8]: 2.87^ab h
- NDF disappearance kinetics: c (fractional rate of disappearance of fraction b) [8]: 0.069 h⁻¹
- MOLD (molds; [12]): 4.77 cfu log10
- MOLD (molds; [13]): 6.24 cfu log10
- YEAST (yeasts [9]; [12]): 5.38 cfu log10
- YEAST (yeasts [9]; [13]): 4.67^b cfu log10
- c = Fractional gas production rate fermentation rate [10]: 6.6^c mL h^−1
- lag = lag time [10]: 0.48^a h
